Data on six compounds can be found in PMC5573973 (Advanced Synthesis & Catalysis, 2017).

The target of experiment [1] is T1, PAL from Petroselinum crispum (PcPAL) (Petroselinum crispum, UniProt P24481). As to conditions: with PcPAL; cited from earlier work.
Experiment [2] addresses PAL. As to conditions: cited from earlier work.
In experiment [3] the target is T1, PAL from Petroselinum crispum (PcPAL). The experiment can be described thus: Steady-state inhibition kinetics of PcPAL-catalyzed deamination of L-Phe. The format is biochemical.
Experiment [4] addresses Y110F mutant of PcPAL (Petroselinum crispum, UniProt P24481, Y110F). Briefly: Isothermal titration calorimetry with Y110F-PcPAL. The format is binding. As to conditions: for Kd: PcPAL_Y110F K d, ITC, pH 8.0, 30 °C. Background: In ITC the heat of successive injections is recorded.
For experiment [5], the system named is PAL. As to conditions: cited from earlier work. This is another data set of the same source.
Experiment [6] relates to Pseudomonas putida HAL. As to conditions: 9 mM, incubation for 120 min in the presence of oxygen; cited from earlier work.

Structures are written as SMILES. Bounds are passed on as bounds.

On to `NC1(P(=O)(O)O)Cc2ccccc2C1` [AIP, 2‐aminoindan‐2‐phosphonic acid], for which, in experiment [1], the Slow binding behavior result was “one‐step slow binding mechanism”. Besides, the Ki (usually the dissociation constant of the complex between target and ligand, obtained from inhibition or displacement) in experiment [2] was 0.025 µM.

`NC(C1(c2ccccc2)CC1)P(=O)(O)O.O` (racemic) [(±)‐6, 1-Amino-1-(1-phenylcyclopropyl)methyl-phosphonic acid hydrate] gave a Ki in experiment [3] greater than 1000 µM. Also, the Type of inhibition result in experiment [3] (best fitting inhibition model to the experimental data) is on record as “No inh”. Moreover, the “Inhibition with PcPAL” value in experiment [3] (up to 1 mM concentration) was “no measurable inhibition”.

Take `N[C@@H](Cc1ccccc1)C(=O)O` [(S)‐1, L‐phenylalanine]: the equilibrium dissociation constant (Kd) (commonly the concentration at which binding is half-saturated) in experiment [4] is 23 µM. Besides, the “Rate of ammonia elimination relative to D-phenylalanine” value in experiment [5] was “more than 4500 times”.

Consider `NO[C@@H](Cc1ccccc1)C(=O)O` [AOPP, (S)‐2‐aminooxy‐3‐phenylpropanoic acid], for which, in experiment [2], the inhibition constant Ki is 0.00038 µM.

Take `N[C@@H](CCS)C(=O)O` [L‐homocysteine]: the “Inhibition of HAL” value in experiment [6] is reported as “irreversibly inhibited”.

`N[C@H](Cc1ccccc1)C(=O)O` [(R)‐1, D‐phenylalanine]: in experiment [4], the affinity, expressed as Kd, was 29.1 µM. Also, in experiment [4] (ΔΔG=ΔG wt−ΔG Y110F, contribution of the hydroxy group of Tyr110), the ΔΔG is -0.5 kcal/mol. Further, in experiment [2], the Type of inhibition entry is given as “competitive inhibitor”.
